Assay results taken from PubChem BioAssay AID2060891 (Molecular Pharmacology Branch, DTP, NCI, 2025).
Values belong to the molecule of their own block, whether it stands above or below them.

System: K98450-129-R-PDC complex spheroid growth, percent test/control
Experiment: Anticancer human tumor K98450-129-R-PDC patient-derived colon adenocarcinoma cell line growth inhibition [RAS]
Settings: for IC50: curve of first compound; for viability, T/C: stronger effect = lower value
Text: RAS pathway inhibitors in Combinations in Complex Spheroids
A high-throughput screen of multi-cell type tumor spheroids was designed to identify active combinations of RAS pathway inhibitors and targeted small molecules. Complex spheroids include a stromal component modeled by human endothelial cells (HUVEC) and fibroblasts modeled by human mesenchymal stem cells (MSCs). The concentration ranges selected for each drug and investigational agent were based upon clinically achievable concentrations if the clinical Cmax of the agent was known.
Compounds. The drugs and investigational agents: abemaciclib (NSC768073), cobimetinib (NSC768068), divarasib (GDC6063, NSC841802), docetaxel (NSC628503), GDC-1971 (RLY-1971, NSC841576), gemcitabine (NSC613327), inavolisib (NSC800729), ipatasertib (NSC767898), KB-0742 (NSC834161), MRTX-1133 (NSC836407), osimertinib (NSC779217), RMC-4630 (NSC839698), RMC-6236 (NSC851965), RMC-6291 (NSC852671), Ro-3306 (NSC812927), sapanisertib (NSC764658), SN-38 (NSC673596), staurosporine (NSC755774), SY5609 (NSC837396), and tovorafenib (DAY101, NSC766906), were obtained from the National Cancer Institute (NCI) Developmental Therapeutics Program Chemical Repository. The FDA-approved anticancer drug set is available from the NCI Developmental Therapeutics Program. […] The stock solutions were prepared in dimethyl sulfoxide (DMSO, Sigma-Aldrich, St. Louis, MO, cat. D2650) at 800-fold the tested concentration and stored at -70 degrees C prior to their use. All drugs and investigational agents were tested over a range starting from a high concentration at or near the clinical Cmax and decreasing in half-log increments. If the clinical Cmax for an agent had not been determined, the highest concentration tested was 10 microM.
Cell Culture. All cells were maintained in an incubator at 37 degrees C and 5% CO2 with 95% humidity. The PDC lines were cultured according to standard operating procedures established by the NCI PDMR. All PDCs were thawed and cultured in Matrigel-coated flasks prepared with a working solution of 1X Ham's F-12 nutrient mix, without supplementation (Invitrogen, Waltham, MA, cat. 11765054), 100 U/mL penicillin-streptomycin (Invitrogen, cat. 15140122), and 2.5% Matrigel (Corning Inc., Corning, NY, cat. 354248) for the first three passages. The 362531-283-R-J2-PDC and 782815-120-R-J1-PDC lines were cultured in 6C/Colon 1B media, which includes advanced DMEM/F-12 (Thermo Fisher Scientific, cat. 12634028), 10 mM HEPES (Thermo Fisher Scientific, cat. 15630080), 1X GlutaMAX supplement (Thermo Fisher Scientific, cat. 35050061), 0.1 mg/mL primocin (InvivoGen, San Diego, CA, cat. ant-pm-2), 10% defined fetal bovine serum, heat inactivated (HyClone Laboratories Inc., Logan, UT, cat. SH30070.03HI), 50% L-WRN conditioned media (ATCC, cat. CRL-3276), 1.25 mM N-Acetyl-L-cysteine (Sigma-Aldrich, cat. A9165), 10 mM nicotinamide (Sigma-Aldrich, cat. N0636), 1X B-27 supplement (Thermo Fisher Scientific, cat. 17504044), 1X N-2 supplement (Thermo Fisher Scientific, cat. 17502048), 50 ng/mL human EGF (Thermo Fisher Scientific, cat. PHG0311), and 10 microM Y-27632 dihydrochloride (Tocris Bioscience, cat. 1254). The K12877-001-R-J1-PDC line was cultured in 6I media, which includes all 6C/Colon 1B media plus 10 ng/mL human FGF-10 (PeproTech, cat. 100-26), 1 ng/mL human FGF-2 (PeproTech, cat. 100-18B), 1 µM prostaglandin E2 (Tocris Bioscience, cat. 2296), […] hydrocortisone (Sigma-Aldrich, cat. H4001), and […] bovine insulin (Sigma-Aldrich, cat. I6634). The K86415-001-R-J1-PDC line was cultured in 6D media, which includes all 6C/Colon 1B media components minus the L-WRN conditioned media. The 485176-168-R4-J1-PDC was cultured in PANC media, which includes all 6C/Colon 1B media plus 100 ng/mL human FGF-10 (PeproTech, cat. 100-26), 500 nM SB-431542 (Selleckchem, cat. S1067), and 10 nM gastrin (Tocris Bioscience, cat. 3006). […]

[1] = second compound 0.0316 µM, first compound 0.0316 µM
[2] = second compound 0.0316 µM, first compound 0.1 µM
[3] = second compound 0.0316 µM, first compound 0.316 µM
[4] = second compound 0.0316 µM, first compound 1 µM
[5] = second compound 0.0316 µM, first compound 3.16 µM
[6] = second compound 0.0316 µM, first compound 10 µM
[7] = second compound 0.1 µM, first compound 0.0316 µM
[8] = second compound 0.1 µM, first compound 0.1 µM
[9] = second compound 0.1 µM, first compound 0.316 µM
[10] = second compound 0.1 µM, first compound 1 µM
[11] = second compound 0.1 µM, first compound 3.16 µM
[12] = second compound 0.1 µM, first compound 10 µM
[13] = second compound 0.316 µM, first compound 0.0316 µM
[14] = second compound 0.316 µM, first compound 0.1 µM
[15] = second compound 0.316 µM, first compound 0.316 µM
[16] = second compound 0.316 µM, first compound 1 µM
[17] = second compound 0.316 µM, first compound 3.16 µM
[18] = second compound 0.316 µM, first compound 10 µM
[19] = second compound 1 µM, first compound 0.0316 µM
[20] = second compound 1 µM, first compound 0.1 µM
[21] = second compound 1 µM, first compound 0.316 µM
[22] = second compound 1 µM, first compound 1 µM
[23] = second compound 1 µM, first compound 3.16 µM
[24] = second compound 1 µM, first compound 10 µM
[25] = second compound 3.16 µM, first compound 0.0316 µM
[26] = second compound 3.16 µM, first compound 0.1 µM
[27] = second compound 3.16 µM, first compound 0.316 µM
[28] = second compound 3.16 µM, first compound 1 µM
[29] = second compound 3.16 µM, first compound 3.16 µM
[30] = second compound 3.16 µM, first compound 10 µM
[31] = second compound 10 µM, first compound 0.0316 µM
[32] = second compound 10 µM, first compound 0.1 µM
[33] = second compound 10 µM, first compound 0.316 µM
[34] = second compound 10 µM, first compound 1 µM
[35] = second compound 10 µM, first compound 3.16 µM
[36] = second compound 10 µM, first compound 10 µM
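Also: spheroids exposed to agents for seven days before the viability readout.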
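For viability, T/C in this document: luminescence used as a proxy for viable cell amount.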

IC50 (second compound 0.0316 µM): > 10 µM
IC50 (second compound 0.1 µM): > 10 µM
IC50 (second compound 0.316 µM): > 10 µM
IC50 (second compound 1 µM): > 10 µM
IC50 (second compound 3.16 µM): > 10 µM
IC50 (second compound 10 µM): > 10 µM
Structure (SMILES): CC1(O)CCCC1n1c(=O)c(C(F)F)cc2cnc(NC3CCN(S(C)(=O)=O)CC3)nc21 (stereo unspecified) + C#Cc1c(F)ccc2cc(O)cc(-c3ncc4c(N5CC6CCC(C5)N6)nc(OCC56CCCN5CC(F)C6)nc4c3F)c12
viability, T/C [1]: 105%
viability, T/C [2]: 101%
viability, T/C [3]: 91.3%
viability, T/C [4]: 78.3%
viability, T/C [5]: 64.2%
viability, T/C [6]: 59.3%
viability, T/C [7]: 108%
viability, T/C [8]: 101%
viability, T/C [9]: 91.7%
viability, T/C [10]: 77.8%
viability, T/C [11]: 65.8%
viability, T/C [12]: 60.5%
viability, T/C [13]: 106%
viability, T/C [14]: 99.5%
viability, T/C [15]: 92.4%
viability, T/C [16]: 78.8%
viability, T/C [17]: 65.5%
viability, T/C [18]: 60.5%
viability, T/C [19]: 104%
viability, T/C [20]: 103%
viability, T/C [21]: 89.3%
viability, T/C [22]: 68.8%
viability, T/C [23]: 58.8%
viability, T/C [24]: 55.3%
viability, T/C [25]: 90.9%
viability, T/C [26]: 94.2%
viability, T/C [27]: 83.5%
viability, T/C [28]: 73.7%
viability, T/C [29]: 63.8%
viability, T/C [30]: 57.3%
viability, T/C [31]: 89.8%
viability, T/C [32]: 85.6%
viability, T/C [33]: 80%
viability, T/C [34]: 67.4%
viability, T/C [35]: 57.4%
viability, T/C [36]: 51%

IC50 (second compound 0.0316 µM): 6.08 µM
IC50 (second compound 0.1 µM): 5.51 µM
IC50 (second compound 0.316 µM): 6.22 µM
IC50 (second compound 1 µM): 5.71 µM
IC50 (second compound 3.16 µM): 5.43 µM
IC50 (second compound 10 µM): 4.67 µM
Structure (SMILES): CCC(CC)c1cc(NC2CCC(N)C2)n2nccc2n1 (stereo unspecified) + C#Cc1c(F)ccc2cc(O)cc(-c3ncc4c(N5CC6CCC(C5)N6)nc(OCC56CCCN5CC(F)C6)nc4c3F)c12
viability, T/C [1]: 99.8%
viability, T/C [2]: 102%
viability, T/C [3]: 103%
viability, T/C [4]: 106%
viability, T/C [5]: 93.7%
viability, T/C [6]: 16.3%
viability, T/C [7]: 105%
viability, T/C [8]: 108%
viability, T/C [9]: 102%
viability, T/C [10]: 98.3%
viability, T/C [11]: 81.7%
viability, T/C [12]: 16.9%
viability, T/C [13]: 105%
viability, T/C [14]: 117%
viability, T/C [15]: 108%
viability, T/C [16]: 97.7%
viability, T/C [17]: 94.8%
viability, T/C [18]: 20%
viability, T/C [19]: 104%
viability, T/C [20]: 99.8%
viability, T/C [21]: 99.4%
viability, T/C [22]: 101%
viability, T/C [23]: 82.4%
viability, T/C [24]: 19.1%
viability, T/C [25]: 91.7%
viability, T/C [26]: 97.1%
viability, T/C [27]: 94.9%
viability, T/C [28]: 84.7%
viability, T/C [29]: 79.1%
viability, T/C [30]: 18.9%
viability, T/C [31]: 84.2%
viability, T/C [32]: 90.2%
viability, T/C [33]: 88.2%
viability, T/C [34]: 89.4%
viability, T/C [35]: 68.5%
viability, T/C [36]: 14.1%

IC50 (second compound 0.0316 µM): > 1 µM
IC50 (second compound 0.1 µM): > 1 µM
IC50 (second compound 0.316 µM): > 1 µM
IC50 (second compound 1 µM): > 1 µM
IC50 (second compound 3.16 µM): > 1 µM
IC50 (second compound 10 µM): 0.27 µM
Structure (SMILES): CCN1CCN(Cc2ccc(Nc3ncc(F)c(-c4cc(F)c5nc(C)n(C(C)C)c5c4)n3)nc2)CC1 + C#Cc1c(F)ccc2cc(O)cc(-c3ncc4c(N5CC6CCC(C5)N6)nc(OCC56CCCN5CC(F)C6)nc4c3F)c12
viability, T/C (second compound 0.0316 µM, first compound 0.00316 µM): 110%
viability, T/C (second compound 0.0316 µM, first compound 0.01 µM): 105%
viability, T/C [1]: 99%
viability, T/C [2]: 92.4%
viability, T/C [3]: 72.2%
viability, T/C [4]: 74.4%
viability, T/C (second compound 0.1 µM, first compound 0.00316 µM): 109%
viability, T/C (second compound 0.1 µM, first compound 0.01 µM): 100%
viability, T/C [7]: 98.4%
viability, T/C [8]: 86.9%
viability, T/C [9]: 74.1%
viability, T/C [10]: 70.5%
viability, T/C (second compound 0.316 µM, first compound 0.00316 µM): 104%
viability, T/C (second compound 0.316 µM, first compound 0.01 µM): 106%
viability, T/C [13]: 97.6%
viability, T/C [14]: 89.6%
viability, T/C [15]: 74.5%
viability, T/C [16]: 67.4%
viability, T/C (second compound 1 µM, first compound 0.00316 µM): 107%
viability, T/C (second compound 1 µM, first compound 0.01 µM): 99.5%
viability, T/C [19]: 90.1%
viability, T/C [20]: 82.8%
viability, T/C [21]: 66.5%
viability, T/C [22]: 59.2%
viability, T/C (second compound 3.16 µM, first compound 0.00316 µM): 90.4%
viability, T/C (second compound 3.16 µM, first compound 0.01 µM): 94.6%
viability, T/C [25]: 95.8%
viability, T/C [26]: 75.6%
viability, T/C [27]: 62.8%
viability, T/C [28]: 53.6%
viability, T/C (second compound 10 µM, first compound 0.00316 µM): 85.7%
viability, T/C (second compound 10 µM, first compound 0.01 µM): 89.3%
viability, T/C [31]: 81.6%
viability, T/C [32]: 69.8%
viability, T/C [33]: 46.9%
viability, T/C [34]: 31.9%
